Measured values: patent US10413517B2, “Composition and method for the treatment of neurological diseases and cerebral injury” (UNIVERSITY OF NOTRE DAME DU LAC, priority 2014, dated 2019)

Experiments:
Npc1^nmf164 mice = test: Survival of drug treated NPC mice (Kaplan-Meier); type: in vivo, mouse; conditions: for median life span: males and females combined, weekly i.p., Vo 50 mg/Kg in PEG, 2×HPBCD 4000 mg/Kg, TCF (Vo 50 mg/Kg+HPBCD 2000 mg/Kg+PEG); for effect on animal survival: i.p. once weekly from day 21
Source text: The present study, inter alia, evaluated the efficacy of Vorinostat (Vo) an HDACi for the treatment of Niemann-Pick Type C disease in a mouse model. […] We hypothesized poor solubility, reduced plasma exposure and penetration across the Blood Brain Barrier (BBB) of Vo to be the possible reasons behind its ineffectiveness in the animals. To overcome these limitations, we used HPBCD as an excipient and made a formulation that contained Vo, HPBCD and polyethylene glycol (PEG) and named it Triple combination Formulation (TCF). The effect of TCF was evaluated using different molecular, biochemical, histological and neurobehavioral measures in NPC mice at indicated ages. For survival and neurobehavioral testing 8-10 mice were used in groups injected with drug. At least 6 mice were used in vehicle treated group. End point for survival studies were set at ≥30% weight loss. For molecular, biochemical, histological analyses at least 3-4 mice were used with at least two technical replicates in each assay. Animals were randomly assigned to treatment groups. Equal numbers of males and females were included in each group. Two independent PK experiments in mice were done each containing 5 mice in a group. The reliability and robustness of neurobehavioral scoring system was evaluated by two blinded investigators. Investigators were blinded to the drug injections while assessing the neurobehavioral functions. Determination of Vo in plasma samples were done by blinded investigators at the Metabolite Profiling Facility, Purdue University, IN, USA. Sample sizes were chosen based on previous experience or similar studies conducted by others. All data points were used in the statistical analyses.
Npc1^nmf164, BALB/c strain carrying an aspartate to glycine mutation at position 1005 (D1005G) in Npc1 gene was used as NPC disease model. (Maue, R. A., et al., Hum Mol Genet 21: 730-750 (2012)).When animals were sick and unable to reach the food provided on the holder, regular food (2019 Teklad diet, Harlan Laboratories, Indianapolis, Ind.) was replaced with DietGel 76A (Clear H2O, Portland, Me.). Studies with mice were performed with approval and authorization from the Institutional Animal Care and Use Committee of University of Notre Dame, Indiana, USA.
(§1) Vorinostat (50 mg/Kg)—Vorinostat was first dissolved in DMSO (100 mg/ml) and then diluted with 9 volume of Polyethylene Glycol 400 (PEG). This drug solution was named as ‘solution A’. Solution A was diluted with equal volume of water where the final concentration of each component was as follows; Vorinostat, 5 mg/ml; DMSO, 5% and PEG, 45%. Mice were given weekly intraperitoneal (i.p) injections starting at 21 days. Vorinostat (100 mg/Kg)—Vorinostat was first dissolved in DMSO (200 mg/ml) and then mixed with 9 volumes of PEG. Rest of the methods and injections plan were as described above. HPBCD (4000 mg/Kg)—40% HPBCD solution prepared in water. Mice were given weekly i.p injections starting at 7 days. HPBCD (2000 mg/Kg)—20% HPBCD solution prepared in water. Mice were given weekly i.p injections starting at 7 days. TCF (Vorinostat, 50 mg/Kg+HPBCD, 2000 mg/Kg, DMSO, 5%+PEG, 45%)—To prepare the formulation, the ‘solution A’ was first prepared as described above and equal volume of 40% HPBCD solution was slowly layered on top of it. The solution was gently mixed for 10 min at RT on rocker set at medium speed. The final concentration of each component in the formulation was as follows; Vorinsotat, 5 mg/ml; DMSO 5%; PEG, 45%; and HPBCD, 20%. Mice were given two i.p doses of HPBCD (2000 mg/Kg) at 7 and 15 days. Starting from 21 days mice were given weekly i.p injection of TCF. Vehicle control (5% DMSO and 45% PEG)—It was made by mixing 1 volume of DMSO with 9 volume of PEG and then diluted with equal volume of water. Mice were given weekly i.p injection starting from 21 days. All drug solutions were stored at −80° C. Fresh vials of frozen stock were thawed for injection on different days. […]

[1] = delivered systemically; cited from earlier work
[2] = tested on: CD68, ITGAX, MIP1α and CTSD; test: qPCR of inflammatory markers in the liver; type: in vivo, mouse; conditions: 100 days; Vo 50 mg/Kg; HPBCD 2000 mg/Kg; TCF
Procedure: as §1, with “speed.” for “speed. The final concentration of each component in the formulation was as follows; Vorinsotat, 5 mg/ml; DMSO 5%; PEG, 45%; and HPBCD, 20%. Mice were given two i.p doses of HPBCD (2000 mg/Kg) at 7 and 15 days. Starting from 21 days mice were given weekly i.p injection of TCF. Vehicle control (5% DMSO and 45% PEG)—It was made by mixing 1 volume of DMSO with 9 volume of PEG and then diluted with equal volume of water. Mice were given weekly i.p injection starting from 21 days. All drug solutions were stored at −80° C. Fresh vials of frozen stock were thawed for injection on different days.”
Quantitative PCR (qPCR) was performed using Power SYBR Green RNA-to-CT 1-Step Kit and an ABI Prism 7500 Fast real-time PCR system (Applied Biosystems, Grand Island, USA). […] The relative amount of transcript was determined using comparative CT method. […]

[3] = cited from earlier work

CC(O)COC[C@H]1O[C@@H]2O[C@H]3[C@H](O)[C@@H](O)[C@@H](O[C@H]4[C@H](O)[C@@H](O)[C@@H](O[C@H]5[C@H](O)[C@@H](O)[C@@H](O[C@H]6[C@H](O)[C@@H](O)[C@@H](O[C@H]7[C@H](O)[C@@H](O)[C@@H](O[C@H]8[C@H](O)[C@@H](O)[C@@H](O[C@H]1[C@H](O)[C@H]2O)O[C@@H]8COCC(C)O)O[C@@H]7COCC(C)O)O[C@@H]6COCC(C)O)O[C@@H]5COCC(C)O)O[C@@H]4COCC(C)O)O[C@@H]3COCC(C)O (stereo partly drawn) [HPBCD, 2-Hydroxypropyl-β-cyclodextrin]
increase of survival relative to vorinostat in PEG (Npc1^nmf164 mice; 4000 mg/Kg weekly i.p., 180 vs 134 d): increased survival by a third
median life span (Npc1^nmf164 mice): 180 days
crossing of the blood brain barrier [1]: does not cross the blood brain barrier

O=C(CCCCCCC(=O)Nc1ccccc1)NO [vorinostat]
median life span (Npc1^nmf164 mice): 134 days
effect on animal survival (Npc1^nmf164 mice; vorinostat 50 mg/Kg in PEG): no significant survival benefit
effect on animal survival (Npc1^nmf164 mice; vorinostat 50 mg/Kg in PEG, listed as Vorinostat): no significant beneficial effect on animal survival
effect on animal survival (Npc1^nmf164 mice; vorinostat 100 mg/Kg in PEG): no survival benefit
inflammatory markers in the liver [2]: significant anti-inflammatory activity
solubility in aqueous solution [3]: poorly soluble in aqueous solution
